The values that follow come from patent publication US20080119412A1, “Polypeptides for Modulating Binding of Trp Channel Proteins and Trp- Associated Proteins” (NoNO Inc., priority 2003, published 2008).

Residues, ends and D or L forms follow the SMILES beside them. *: point of attachment. Biotin = O=C1N[C@H]2[C@H](CS[C@H]2CCCCC(=O)*)N1

The target of experiment [1] is T1, INADL d3 (Homo sapiens, UniProt Q8NI35).
T1 construct: made in house; host or cells: E. coli (DH5alpha, BL21 or JM109)
T1 sequence (Q8NI35 with tags, fused parts or gaps): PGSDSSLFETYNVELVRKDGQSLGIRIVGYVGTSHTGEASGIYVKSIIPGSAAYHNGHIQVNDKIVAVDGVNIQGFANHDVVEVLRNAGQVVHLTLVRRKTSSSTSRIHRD
Nature of the experiment: G assay, peptide binding to GST-PDZ fusion (Table 11). To be noted: Table 11, titrations or binding assays.
Method: (§6) The binding of labeled PL peptide (e.g., as listed in TABLE 2 and TABLE 4) to this surface is then measured. In a preferred embodiment, the assay is carried out as follows:
(§7) (1) A PDZ-domain polypeptide is bound to a surface, e.g. a protein binding surface. In a preferred embodiment, a GST/PDZ fusion protein containing one or more PDZ domains is bound to a polystyrene 96-well plate. […] In one embodiment, the GST/PDZ fusion protein is bound via an anti-GST antibody that is coated onto the 96-well plate. Adequate binding to the plate can be achieved when:
(§8) (2) Biotinylated PL peptides are allowed to react with the surface by addition of 50 μl per well of 20 μM solution of the biotinylated peptide in PBS/BSA for 10 minutes at 4° C., followed by an additional 20 minute incubation at 25° C. The plate is washed 3 times with ice cold PBS.
(§9) (3) The binding of the biotinylated peptide to the GST/PDZ fusion protein surface can be detected using a variety of methods and detectors known to one of skill in the art. In one embodiment, 100 μl per well of 0.5 μg/ml streptavidin-horseradish peroxidase (HRP) conjugate dissolved in BSA/PBS is added and allowed to react for 20 minutes at 4° C. The plate is then washed 5 times with 50 mM Tris pH 8.0 containing 0.2% Tween 20, and developed by addition of 100 μl per well of HRP-substrate solution (TMB, Dako) for 20 minutes at room temperature (RT). The reaction of the HRP and its substrate is terminated by addition of 100 μl per well of 1 M sulfuric acid, and the optical density (O.D.) of each well of the plate is read at 450 um.
(§10) (4) Specific binding of a PL peptide and a PDZ domain polypeptide is determined by comparing the signal from the well(s) in which the PL peptide and PDZ domain polypeptide are combined, with the background signal(s). […] Typically a specific or selective reaction will be at least twice background signal, more typically more than 5 times background, and most typically 10 or more times the background signal. […] Correspondingly, a statistical test (e.g. a T-test) comparing repeated measurements of the signal with -repeated measurements of the background will result in a p-value <0.05, more typically a p-value <0.01, and most typically a p-value <0.001 or less. As noted, in an embodiment of the G assay, the signal from binding of a given PL peptide to immobilized (surface bound) GST polypeptide alone is one suitable negative control (sometimes referred to as B1). Because all measurement are done in multiples (i.e. at least duplicate) the arithmetic mean (or, equivalently, average.) of several measurements is used in determining the binding, and the standard error of the mean is used in determining the probable error in the measurement of the binding. The standard error of the mean of N measurements equals the square root of the following: the sum of the squares of the difference between each measurement and the mean, divided by the product of (N) and (N−1). Thus, in one embodiment, specific binding of the PDZ protein to the platebound peptide is determined by comparing the mean signal (“mean S”) and standard error of the signal (“SE”) for a particular PL-PDZ combination with the mean B1.

In experiment [2] the target is T2, ZO-1 d2 (Homo sapiens, UniProt Q07157, DEL264-264).
T2 construct: made in house; host or cells: E. coli (DH5alpha, BL21 or JM109)
T2 sequence (Q07157 with tags, fused parts or gaps DEL264-264): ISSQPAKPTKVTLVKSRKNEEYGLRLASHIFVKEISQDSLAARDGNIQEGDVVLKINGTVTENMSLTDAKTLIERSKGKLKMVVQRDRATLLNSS
The description is as above. To be noted: Table 11, titrations or binding assays.
Method: as §6, §7, §8, §9, §10

In experiment [3] the target is T1, INADL d3. Nature of the experiment: G3 assay titration, GST-PDZ fusion / biotinylated peptide. Format: binding. Conditions: for ODmax (450 nm): Table 10, titration of peptides with INADL d3. The protocol: (§1) The G3 assay is identical to the G0 assay with the following exceptions. The peptides are typically present at 0.1 μM rather than 20 μM. The peptides are also pre-incubated with the HRP-streptavidin prior to adding to the assay plate. In the G0 assay, free peptide is incubated with the PDZ proteins prior to the addition of the HRP-streptavidin. Thus, for the G0 assay one can lose signal if the bound peptide dissociates from the PDZ protein prior to the addition of the HRP-streptavidin. In the G3 modified assay the HRP-streptavidin/peptide complex is added to the plate in one step, thus increasing the likelihood that all the bound peptide will be bound to HRP-streptavidin. The G3 modified assay increases the chance of observing weak interactions.
(§2) This example describes assays to identify binding between TRPM7 and PDZ domains. GST-PDZ fusions are produced that each contain an entire PDZ domain (or multiple PDZ domains), the collection encompassing approximately 90% of all PDZ domains identified in the human genome. (See Table 5 and Section V (PDZ Proteins and PL Protein Interactions Disclosure). Biotinylated peptide corresponding to 11 residues of Tat coupled to the C-terminal 9 amino acids of TRPM7 ([…]; SEQ ID NO:258) is synthesized and purified by HPLC.
(§3) • Nunc MaxiSorp 96 well Immuno-plate, Nunc • PBS pH 7.4 (phosphate buffered saline, 8 g NaCl, 0.29 g KCl, 1.44 g Na2HPO4, 0.24 g KH2PO4, add H2O to 1 liter and pH 7.4; 0.2 μm filter) • Assay Buffer: 2% BSA in PBS (20 g of bovine serum albumin per liter PBS, fraction V, ICN Biomedicals, cat#IC15142983 • Goat anti-GST polyclonal Ab, stock 5 mg/ml, stored at 4° C., Amersham Pharmacia cat#27-4577-01 • Dilute 1:1000 in PBS, final concentration 5 μg/ml. • HRP-Streptavidin, 2.5 mg/2 ml stock stored at 4° C., Zymed cat#43-4323, dilute 1:2000 into Assay buffer, final concentration of […] • Wash Buffer, PBS • Biotinylated peptides (HPLC purified, stock solution stored in −20° C. freezer) • GST-PRISM proteins (stock stored at −80° C., after 1st thaw store in −10° C. freezer) • TMB (3,3′,5,5′, teramethylbensidine), tablets, Sigma cat.#T5525 • Per plate, dissolve 1 tablet in 1 ml DMSO, add 9 ml Citrate/Phosphate buffer pH 5.4 and 2 μL H2O2 • 0.1 M H2SO4, Sigma cat.#S1526 • 12-w multichannel pipettor & tips • 50 ml reagent reservoirs, Costar#4870 • 50, 15 ml polypropylene conical tubes • Costar Transtar 96 Costar #7605 • Transtar 96 Cartridge Costar #7610 • Molecular Devices microplate reader (450 & 650 nm filters) with SoftMax Pro software *When using reagents stored at or 4° C. or −20° C., remove & keep on ice
(§4) • 1. Coat plate with 100 μl of 5 μg/ml anti-GST, overnight at 4° C. • 2. Dump contents of plate & out tap dry on paper towels • 3. Block with 200 μl Assay Buffer for 2 hrs at room temperature • 4. Prepare proteins at 5 μg/ml in Assay Buffer • 5. Wash 3× with cold PBS (4° C.), avoiding letting the plates dry out • 6. Add proteins at 50 μl per well, incubate 1 to 2 hrs at 4° C. • 7. Prepare peptides to desired concentration in Assay Buffer • 8. Wash 3× with cold PBS (4° C.), avoiding letting the plates dry out • 9. Add HRP-Streptavidin/peptide complex [prepared by incubating for 20 minutes at room temperature HRP-Streptavidin (1:2000) with the desired biotin-peptide concentration for 20 minutes at room temperature] at 50 μl per well on ice • 10. Place at room temperature for exactly 30 minutes • 11. Promptly wash 5× with PBS at room temperature • 12. Add 100 μl/well TMB substrate (write time on plate) • 13. Incubate in dark at room temperature for a maximum of 30 minutes • 14. Read plate at 25 minutes (650 nm), optional • 15. Stop reaction with 100 μl of 0.18 M H2SO4, 30 minutes after adding TMB • Take last reading at 450 nm soon after stopping reaction
(§5) The G3 assay was performed using 0.1 μM peptide representing 11 amino acids of Tat fused to the final 9 amino acids of TRPM7 ([…]; SEQ ID NO:258). […]

Experiment [4] concerns the target T2, ZO-1 d2. The experiment is described as above. Format: binding. Conditions: for ODmax (450 nm): Table 10, titration of peptides with ZO-1 d2. The protocol:
as §1, §2, §3, §4, §5

In general, EC50 refers to the concentration at which the effect is half-maximal. Higher therefore signals a less potent agent. In the case of `CC[C@H](C)[C@H](NC(=O)[C@@H](NC(=O)[C@H](CCCNC(=N)N)NC(=O)[C@H](CC(=O)O)NC(=O)[C@H](CO)NC(=O)[C@H](CCCNC(=N)N)NC(=O)[C@H](C)NC(=O)[C@H](CCCNC(=N)N)NC(=O)[C@H](CCCNC(=N)N)NC(=O)[C@H](CCCNC(=N)N)NC(=O)[C@H](CCC(N)=O)NC(=O)[C@H](CCCNC(=N)N)NC(=O)[C@H](CCCNC(=N)N)NC(=O)[C@H](CCCCN)NC(=O)[C@H](CCCCN)NC(=O)[C@H](CCCNC(=N)N)NC(=O)CNC(=O)[C@H](Cc1ccc(O)cc1)NC(=O)CCCC[C@@H]1SC[C@@H]2NC(=O)N[C@@H]21)[C@@H](C)O)C(=O)N[C@@H](Cc1c[nH]c2ccccc12)C(=O)N[C@@H](C)C(=O)O` [Peptide 1829] (Biotin-YGRKKRRQRRRARSDRTIWA-OH; C-terminus assumed), the PDZ domain bound entry at INADL d3 [1] is given as “INADL D3”; on ZO-1 d2 [2] it was “ZO-1 D2”. Further, the “ODmax (450 nm)” value at INADL d3 [3] came to 1.40; at ZO-1 d2 [4] it was 2.90. The compound also yielded an EC50 at ZO-1 d2 [4] of 7 nM.

Regarding `CC[C@H](C)[C@H](NC(=O)[C@H](CC(C)C)NC(=O)[C@H](CCCNC(=N)N)NC(=O)[C@H](CCCNC(=N)N)NC(=O)[C@H](CCC(=O)O)NC(=O)[C@H](CC(=O)O)NC(=O)[C@H](CCC(N)=O)NC(=O)[C@H](CCCNC(=N)N)NC(=O)[C@H](CCCNC(=N)N)NC(=O)[C@H](CCCNC(=N)N)NC(=O)[C@H](CCC(N)=O)NC(=O)[C@H](CCCNC(=N)N)NC(=O)[C@H](CCCNC(=N)N)NC(=O)[C@H](CCCCN)NC(=O)[C@H](CCCCN)NC(=O)[C@H](CCCNC(=N)N)NC(=O)CNC(=O)[C@H](Cc1ccc(O)cc1)NC(=O)CCCC[C@@H]1SC[C@@H]2NC(=O)N[C@@H]21)C(=O)N[C@H](C(=O)N[C@@H](CC(C)C)C(=O)O)C(C)C` [Peptide 1842] (Biotin-YGRKKRRQRRRQDERRLIVL-OH), the PDZ domain bound entry at ZO-1 d2 [2] is given as “ZO-1 D2”. Besides, the EC50 on INADL d3 [3] is less than 1000 nM; on ZO-1 d2 [4] it was 35 nM. The “ODmax (450 nm)” value on INADL d3 [3] was determined as 1.90; on ZO-1 d2 [4] it was 2.30.

As to `CC(C)C[C@H](NC(=O)[C@H](CO)NC(=O)[C@@H](NC(=O)[C@H](CC(C)C)NC(=O)[C@H](CCCNC(=N)N)NC(=O)[C@H](CC(=O)O)NC(=O)CNC(=O)[C@H](CCCNC(=N)N)NC(=O)[C@H](C)NC(=O)[C@H](CCCNC(=N)N)NC(=O)[C@H](CCCNC(=N)N)NC(=O)[C@H](CCCNC(=N)N)NC(=O)[C@H](CCC(N)=O)NC(=O)[C@H](CCCNC(=N)N)NC(=O)[C@H](CCCNC(=N)N)NC(=O)[C@H](CCCCN)NC(=O)[C@H](CCCCN)NC(=O)[C@H](CCCNC(=N)N)NC(=O)CNC(=O)[C@H](Cc1ccc(O)cc1)NC(=O)CCCC[C@@H]1SC[C@@H]2NC(=O)N[C@@H]21)C(C)C)C(=O)O` [Peptide 1843] (Biotin-YGRKKRRQRRRARGDRLVSL-OH; C-terminus assumed), the PDZ domain bound entry at ZO-1 d2 [2] was “ZO-1 D2”. For the same compound, at INADL d3 [3], the EC50 was less than 2000 nM and the “ODmax (450 nm)” value worked out at 1.20. Besides, on ZO-1 d2 [4], the midpoint of the response, the EC50, lay at 17 nM and the “ODmax (450 nm)” value is on record as 2.20.

In the case of `CC(C)[C@H](NC(=O)[C@H](Cc1ccc(O)cc1)NC(=O)[C@H](Cc1ccc(O)cc1)NC(=O)[C@H](CCC(=O)O)NC(=O)[C@H](CCCCN)NC(=O)[C@H](CC(=O)O)NC(=O)[C@H](CCCCN)NC(=O)[C@H](CC(N)=O)NC(=O)[C@H](CCCCN)NC(=O)[C@H](CCCNC(=N)N)NC(=O)[C@H](CCCNC(=N)N)NC(=O)[C@H](CCCNC(=N)N)NC(=O)[C@H](CCC(N)=O)NC(=O)[C@H](CCCNC(=N)N)NC(=O)[C@H](CCCNC(=N)N)NC(=O)[C@H](CCCCN)NC(=O)[C@H](CCCCN)NC(=O)[C@H](CCCNC(=N)N)NC(=O)CNC(=O)[C@H](Cc1ccc(O)cc1)NC(=O)CCCC[C@@H]1SC[C@@H]2NC(=O)N[C@@H]21)C(=O)O` [Peptide 1852] (Biotin-YGRKKRRQRRRKNKDKEYYV-OH), the EC50 at INADL d3 [3] and at ZO-1 d2 [4] was less than 20 nM throughout.

For the compound `CC[C@H](C)[C@H](NC(=O)[C@@H](NC(=O)[C@H](CCCNC(=N)N)NC(=O)[C@H](CC(=O)O)NC(=O)[C@H](CO)NC(=O)[C@H](CCCNC(=N)N)NC(=O)[C@H](C)NC(=O)[C@H](CCCNC(=N)N)NC(=O)[C@H](CCCNC(=N)N)NC(=O)[C@H](CCCNC(=N)N)NC(=O)[C@H](CCC(N)=O)NC(=O)[C@H](CCCNC(=N)N)NC(=O)[C@H](CCCNC(=N)N)NC(=O)[C@H](CCCCN)NC(=O)[C@H](CCCCN)NC(=O)[C@H](CCCNC(=N)N)NC(=O)CNC(=O)[C@H](Cc1ccc(O)cc1)NC(=O)CCCC[C@@H]1SC[C@@H]2NC(=O)N[C@@H]21)[C@@H](C)O)C(=O)N[C@H](C(=O)N[C@@H](C)C(=O)O)[C@@H](C)CC` [Peptide 1830] (Biotin-YGRKKRRQRRRARSDRTIIA-OH), the 50% effective concentration (EC50) at INADL d3 [3] was less than 2000 nM; at ZO-1 d2 [4] it was less than 20 nM.

Take `CC[C@H](C)[C@H](NC(=O)[C@H](CCC(N)=O)NC(=O)[C@H](Cc1ccc(O)cc1)NC(=O)[C@H](CCCCN)NC(=O)[C@H](CCCNC(=N)N)NC(=O)[C@H](CC(=O)O)NC(=O)[C@@H](NC(=O)[C@H](CCCNC(=N)N)NC(=O)[C@H](CO)NC(=O)[C@H](CCCNC(=N)N)NC(=O)[C@H](CCCNC(=N)N)NC(=O)[C@H](CCCNC(=N)N)NC(=O)[C@H](CCC(N)=O)NC(=O)[C@H](CCCNC(=N)N)NC(=O)[C@H](CCCNC(=N)N)NC(=O)[C@H](CCCCN)NC(=O)[C@H](CCCCN)NC(=O)[C@H](CCCNC(=N)N)NC(=O)CNC(=O)[C@H](Cc1ccc(O)cc1)NC(=O)CCCC[C@@H]1SC[C@@H]2NC(=O)N[C@@H]21)[C@@H](C)O)C(=O)O` [Peptide 1839] (Biotin-YGRKKRRQRRRSRTDRKYQI-OH; C-terminus assumed): the PDZ domain bound entry on INADL d3 [1] is given as “INADL D3”. For the same compound, the EC50 at INADL d3 [3] is 130 nM; at ZO-1 d2 [4], less than 20 nM. Also, the “ODmax (450 nm)” value at INADL d3 [3] is 1.60; at ZO-1 d2 [4] it was 2.50.

In the case of `CC[C@H](C)[C@H](NC(=O)[C@H](CCCNC(=N)N)NC(=O)[C@H](Cc1ccc(O)cc1)NC(=O)[C@H](CCCNC(=N)N)NC(=O)[C@H](CC(=O)O)NC(=O)CNC(=O)[C@H](CCCNC(=N)N)NC(=O)[C@H](C)NC(=O)[C@H](CCCNC(=N)N)NC(=O)[C@H](CCCNC(=N)N)NC(=O)[C@H](CCCNC(=N)N)NC(=O)[C@H](CCC(N)=O)NC(=O)[C@H](CCCNC(=N)N)NC(=O)[C@H](CCCNC(=N)N)NC(=O)[C@H](CCCCN)NC(=O)[C@H](CCCCN)NC(=O)[C@H](CCCNC(=N)N)NC(=O)CNC(=O)[C@H](Cc1ccc(O)cc1)NC(=O)CCCC[C@@H]1SC[C@@H]2NC(=O)N[C@@H]21)C(=O)N[C@H](C(=O)O)C(C)C` [Peptide 1845] (Biotin-YGRKKRRQRRRARGDRYRIV-OH), the EC50 at INADL d3 [3] and at ZO-1 d2 [4] was less than 100 nM each time.
